Earlier results as cited in PubChem BioAssay AID1259410 (Chemical Carcinogenesis Research Information System (CCRIS), 2018).

Test system: rodent tumor promotion studies, tumor incidence
Assay: CCRIS tumor promotion studies

SMILES | outcome (Carcinogen: 2-(ACETYLAMINO)FLUORINE, Doses [Carcinogen]: 200 PPM IN DIET FOR 8 WK, Doses [Promoter]: 300, 1000, 3000, 6000 PPM IN DIET FOR 22 WK AFTER INITIATION FOR 8 WK, Doses [Promoter]: 300, 1000, 3000, 6000 PPM IN DIET FOR 22 WK AFTER INITIATION FOR 8 WK, Route [Carcinogen]: ORAL, Route [Promoter]: ORAL, Species: RAT, Strain/Sex: F344/MALE) | outcome (Carcinogen: 2-(ACETYLAMINO)FLUORINE, Doses [Carcinogen]: DIET, Doses [Promoter]: IN DIET, Route [Carcinogen]: ORAL, Route [Promoter]: ORAL, Species: RAT, Strain/Sex: MALE) | outcome (Carcinogen: 3,2'-DIMETHYL-4-AMINOBIPHENYL, 13394-86-0, Doses [Carcinogen]: 50 MG/KG IN CORN OIL 1/WK FOR 10 WK, Doses [Promoter]: 0, 1 ADMINISTERED TO 4 WK OLD RATS IN DIET FOR 11 WK BEGINNING 1 WK PRIOR TO CARCINOGEN (STUDY DURATION: 55 WK), Route [Carcinogen]: SUBCUTANEOUS, Route [Promoter]: ORAL, Species: RAT, Strain/Sex: F344/MALE) | outcome (Carcinogen: 3-METHYLCHOLANTHRENE, 56-49-5, Doses [Carcinogen]: 10, 15, 25 UG/G ONCE, Doses [Carcinogen]: 10, 15, 25 UG/G ONCE, Doses [Promoter]: 0, 200 MG/KG 1/WK FOR 6 WK (STUDY DURATION: 20 WK), Route [Carcinogen]: INTRAPERITONEAL, Route [Promoter]: INTRAPERITONEAL, Species: MOUSE, Strain/Sex: BALB/CBYJ/FEMALE) | outcome (Carcinogen: 3-METHYLCHOLANTHRENE, 56-49-5, Doses [Carcinogen]: 10 UG/G ONCE, Doses [Promoter]: 0, 200 MG/KG 1/WK FOR 6 WK (STUDY DURATION: 20 WK), Route [Carcinogen]: INTRAPERITONEAL, Route [Promoter]: INTRAPERITONEAL, Species: MOUSE, Strain/Sex: BALB/COLA/FEMALE) | outcome (Carcinogen: METHYLNITROSOUREA, 684-93-5, Doses [Carcinogen]: 20 MG/KG 2/WK FOR 4 WK, Doses [Promoter]: 0, 1% IN DIET BEGINNING POST CARCINOGEN TREATMENT AND CONTINUING FOR 32 WK (STUDY DURATION: 36 WK), Route [Carcinogen]: INTRAPERITONEAL, Route [Promoter]: ORAL, Species: RAT, Strain/Sex: F344/MALE) | outcome (Carcinogen: N,N-DIBUTYLNITROSAMINE, 924-16-3, Doses [Carcinogen]: 0.05% IN DRINKING WATER FOR 16 WK, Doses [Promoter]: 0, 0.7% IN DIET FOR 16 WK CONCOMITANT WITH CARCINOGEN TREATMENT (STUDY DURATION: 32 WK), Route [Carcinogen]: ORAL, Route [Promoter]: ORAL, Species: RAT, Strain/Sex: F344/MALE) | outcome (Carcinogen: N-BUTYL-N-(4-HYDROXYBUTYL)NITROSAMINE, 3817-11-6, Doses [Carcinogen]: 0.05% IN DRINKING WATER FOR 4 WK, Doses [Promoter]: 0, 1% IN DIET FOR 32 WK (STUDY DURATION: 36 WK), Route [Carcinogen]: ORAL, Route [Promoter]: ORAL, Species: RAT, Strain/Sex: F344/MALE) | outcome (Carcinogen: N-BUTYL-N-(4-HYDROXYBUTYL)NITROSAMINE, Doses [Carcinogen]: 0.05% IN DRINKING WATER FOR 4 WK, Doses [Promoter]: 1% IN DIET FOR 32 WK AFTER INITIATION, Route [Carcinogen]: ORAL, Route [Promoter]: ORAL, Species: RAT, Strain/Sex: F344/MALE) | outcome (Carcinogen: N-METHYL-N-NITROSOUREA, 684-93-5, Doses [Carcinogen]: 20 MG/KG 2/WK FOR 4 WK, Doses [Promoter]: 0, 1% IN DIET FOR 32 WK (STUDY DURATION: 36 WK), Route [Carcinogen]: INTRAPERITONEAL, Route [Promoter]: ORAL, Species: RAT, Strain/Sex: F344/MALE) | outcome (Carcinogen: URETHANE, 51-79-6, Doses [Carcinogen]: 1 MG/G BW ONCE, Doses [Promoter]: 0, 200 MG/G BW 1/WK FOR 6 WK BEGINNING POST CARCINOGEN TREATMENT (STUDY DURATION: 20 WK), Route [Carcinogen]: INJECTION, Route [Promoter]: INJECTION, Species: MOUSE, Strain/Sex: BALB/MALE,FEMALE) | outcome (Carcinogen: URETHANE, 51-79-6, Doses [Carcinogen]: 1 MG/G BW ONCE, Doses [Promoter]: 0, 200 MG/G BW 1/WK FOR 6 WK BEGINNING POST CARCINOGEN TREATMENT (STUDY DURATION: 20 WK), Route [Carcinogen]: INJECTION, Route [Promoter]: INJECTION, Species: MOUSE, Strain/Sex: GRS/MALE,FEMALE) | outcome (Carcinogen: URETHANE, 51-79-6, Doses [Carcinogen]: 1 MG/KG ONCE, Doses [Promoter]: 0, 200 MG/KG 1/WK FOR 6 WK (STUDY DURATION: 20 WK), Route [Carcinogen]: INTRAPERITONEAL, Route [Promoter]: INTRAPERITONEAL, Species: MOUSE, Strain/Sex: BALB/CBYJ/FEMALE) | outcome (Carcinogen: URETHANE, Doses [Carcinogen]: 1000 MG/KG ONCE, Doses [Promoter]: 0.10, 0.25, 0.50% IN DIET FOR 8 WK BEGINNING 24 HR AFTER INITIATION, Doses [Promoter]: 0.10, 0.25, 0.50% IN DIET FOR 8 WK BEGINNING 24 HR AFTER INITIATION, Route [Carcinogen]: INTRAPERITONEAL, Route [Promoter]: ORAL, Species: MOUSE, Strain/Sex: STRAIN-A/MALE) | outcome (Carcinogen: URETHANE, Doses [Carcinogen]: IP, Route [Carcinogen]: INTRAPERITONEAL, Route [Promoter]: INTRAPERITONEAL, Species: MOUSE, Strain/Sex: MALE) | outcome (Carcinogen: 7,12-DIMETHYLBENZ[A]ANTHRACENE, 57-97-6, Doses [Carcinogen]: 25 NMOL IN 0.2 ML ACETONE ONCE, Doses [Promoter]: 440, 880, 1760 NMOL/MOUSE 1/WK FOR 40 WK BEGINNING 2 WK POST CARCINOGEN DOSE (STUDY DURATION: 42 WK), Doses [Promoter]: 440, 880, 1760 NMOL/MOUSE 1/WK FOR 40 WK BEGINNING 2 WK POST CARCINOGEN DOSE (STUDY DURATION: 42 WK), Route [Carcinogen]: DERMAL, Route [Promoter]: DERMAL, Species: MOUSE, Strain/Sex: SENCAR/FEMALE) | outcome (Carcinogen: 7,12-DIMETHYLBENZ[A]ANTHRACENE, 57-97-6, Doses [Carcinogen]: 25 NMOL IN 0.2 ML ACETONE ONCE, Doses [Promoter]: 1760 NMOL/MOUSE 2/WK FOR 40 WK BEGINNING 2 WK POST CARCINOGEN DOSE (STUDY DURATION: 42 WK), Route [Carcinogen]: DERMAL, Route [Promoter]: DERMAL, Species: MOUSE, Strain/Sex: SENCAR/FEMALE) | outcome (Carcinogen: 7,12-DIMETHYLBENZ[A]ANTHRACENE, 57-97-6, Doses [Carcinogen]: 25 NMOL IN 0.2 ML ACETONE ONCE, Doses [Promoter]: 1760 NMOL/MOUSE 3/WK FOR 40 WK BEGINNING 2 WK POST CARCINOGEN DOSE (STUDY DURATION: 42 WK), Route [Carcinogen]: DERMAL, Route [Promoter]: DERMAL, Species: MOUSE, Strain/Sex: SENCAR/FEMALE) | outcome (Carcinogen: 7,12-DIMETHYLBENZ[A]ANTHRACENE, 57-97-6, Doses [Carcinogen]: 25 NMOL IN 0.2 ML ACETONE ONCE, Doses [Promoter]: 1760 NMOL/MOUSE 3/WK FOR 60 WK BEGINNING 2 WK POST CARCINOGEN DOSE (STUDY DURATION: 60 WK), Route [Carcinogen]: DERMAL, Route [Promoter]: DERMAL, Species: MOUSE, Strain/Sex: SENCAR/FEMALE)
Cc1cc(C(C)(C)C)c(O)c(C(C)(C)C)c1 | liver: neoplastic nodule, hepatocellular carcinoma | liver | bladder: carcinoma, papilloma | lung: tumor | lung: tumor | urinary bladder: papilloma, carcinoma; thyroid: adenoma | liver: hepatocellular carcinoma | urinary bladder: papilloma, carcinoma | urinary bladder: carcinoma | thyroid gland: adenoma; urinary bladder: papilloma, carcinoma | lung: tumor | lung: tumor | lung: tumor | lung: tumor (nos) | lung |  |  |  | 
O=C1C=CC(=O)c2c(O)cccc21 |  |  |  |  |  |  |  |  |  |  |  |  |  |  |  | skin: papilloma | skin: papilloma | skin: papilloma | skin: carcinoma
